From patent publication US20240058251A1, “Composition for Oral Cavity” (SUNSTAR SUISSE SA, priority 2020, published 2024)

Tested on: Streptococcus oralis spp. tigurinus
Test: S. oralis culture test (Alamar Blue fluorescence; proliferation rate relative to a control containing no sample solution)
Format: cell-based
Method: S. oralis was cultured in BHI medium (Brain Heart Infusion broth (manufactured by BD)). After the turbidity of the medium at a wavelength of 660 nm was measured, the culture solution was diluted with BHI medium until the turbidity was 0.1. The diluted medium was used as a bacterial solution. As S. oralis, Streptococcus oralis spp. tigurinus was used.
Sample solutions of Examples and Comparative Examples were prepared by dissolving an amino acid and a sugar in the BHI medium. The concentrations of the amino acid in the sample solutions were set at 0 mg/ml or 15 mg/ml and the concentrations of the sugar were set at 20 mg/ml.
To the wells of a 96-well plate, the bacterial solution (100 μl) and a sample solution (100 μl) were added. The 96-well plate was subjected to culturing performed at 37° C. in anaerobic conditions for 24 hours. After completion of the culture, the supernatant was removed and 110 μl of an Alamar Blue solution (manufactured by Invitrogen) diluted 11-fold with phosphate buffer saline (PBS), was added. Fluorescence intensity was measured at an excitation wavelength of 545 nm and a fluorescence wavelength of 590 nm. A relative value thereof to the fluorescence intensity of a control containing no sample solution was calculated as the proliferation rate of S. oralis. The proliferation rate calculated was evaluated based on the following evaluation criteria. The results are shown in Table 1. • A: 10 or more • B: 5 or more and less than 10 • C: less than 5 […]
The proliferation rate of S. oralis in the case in which galactose was used as the sugar and citrulline was used as the amino acid, was measured. The test method was the same as in Test 1. The concentrations of galactose and citrulline in sample solutions and the measurement results of proliferation rates are shown in Table 3. In Test 3, the concentrations of galactose in sample solutions were set at 0 mg/ml or 2 mg/ml and the concentrations of citrulline were set at 0.5 to 3.0 mg/ml.
The proliferation rate of S. oralis was measured in the case in which 2′-fucosyllactose was used as the sugar and arginine was used as the amino acid. The test method was the same as in Test 1. The concentrations of 2′-fucosyllactose and arginine in sample solutions and the measurement results of proliferation rates are shown in Table 4. […]

SMILES: N=C(N)NCCC[C@H](N)C(=O)O [Comparative Example 1, Arginine]
- Effect of promoting proliferation of S. oralis (in words) (Test 1): not obtained
- Evaluation of proliferation rate (Test 1, sample solution in BHI medium: sugar 20 mg/ml, amino acid 0 or 15 mg/ml, 37° C., anaerobic, 24 hours): C (less than 5)

SMILES: NC(=O)NCCC[C@H](N)C(=O)O [Comparative Example 8, Citrulline]
- Effect of promoting proliferation of S. oralis (in words) (Test 3, citrulline 0.5 to 3.0 mg/ml, galactose 0 or 2 mg/ml): the effect of proliferating S. oralis was promoted but the level of the proliferation promotion effect decreased as the concentration of citrulline increased
- Proliferation rate (Test 3, galactose 0 mg/ml, citrulline 0.5 mg/ml): 3.8
- Proliferation rate (Test 3, galactose 0 mg/ml, citrulline 1.0 mg/ml): 2.7
- Proliferation rate (Test 3, galactose 0 mg/ml, citrulline 2.0 mg/ml): 1.8

SMILES: C[C@@H]1O[C@@H](O[C@H]2[C@H](O[C@H]3[C@H](O)[C@@H](O)C(O)O[C@@H]3CO)O[C@H](CO)[C@H](O)[C@@H]2O)[C@@H](O)[C@H](O)[C@@H]1O (some centres unmarked) [Comparative Example 9, 2′-Fucosyllactose]
- Proliferation rate (Test 4, 2′-fucosyllactose 1 mg/ml, arginine 0 mg/ml): 1.0
- Proliferation rate (Test 4, 2′-fucosyllactose 2 mg/ml, arginine 0 mg/ml): 1.5
- Proliferation rate (Test 4, 2′-fucosyllactose 3 mg/ml, arginine 0 mg/ml): 0.9
- Proliferation rate (Test 4, 2′-fucosyllactose 4 mg/ml, arginine 0 mg/ml): 0.6
- Effect of promoting proliferation of S. oralis (in words) (Test 4, 2′-fucosyllactose 1 to 4 mg/ml, arginine 0 or 1.5 mg/ml): scarcely observed
